Non-standard residues stand in square brackets, D forms with d. Residues, ends and D or L forms follow the SMILES beside them.
Key:
Rattus norvegicus = species: Rattus norvegicus; test: Effective Concentration for GH secretion from rat pituitary cell was determined; format: functional; conditions: Pituitary gland cell
[1] = Dissociation constant was evaluated which is similar to Ki (inhibitory constant)

| EC50 (Rattus norvegicus) | Kd [1] | SMILES |
| --- | --- | --- |
| > 5000 nM | – | CC(C)(N)CC(=O)N[C@H]1CCc2ccccc2N(Cc2ccc(-c3ccccc3-c3nn[nH]n3)cc2)C1=O |
| 10 nM | – | C[C@H](NC(=O)[C@@H](Cc1c[nH]c2ccccc12)NC(=O)[C@@H](N)Cc1c[nH]cn1)C(=O)N[C@@H](Cc1c[nH]c2ccccc12)C(=O)N[C@H](Cc1ccccc1)C(=O)N[C@@H](CCCCN)C(N)=O (H-H[dW]AW[dF]K-NH2) |
| […] | 0.161 nM | CC(C)(N)C(=O)N[C@H](COCc1ccccc1)C(=O)N1CCC2(CC1)CN(S(C)(=O)=O)c1ccccc12 [IBUTAMOREN] |
